Measurements as given in patent US5206237A, “Benzodiazepine analogs” (Merck & Co., Inc., priority 1991, dated 1993).

Assays:
[1] = biological target: T1, CCK receptor (pancreas) (Rattus norvegicus, UniProt P30551); assay: CCK receptor binding (Pancreas), inhibition of 125I-CCK binding; design: species or system rat (male Sprague-Dawley); conditions: 125I-CCK-33, 37° C., 30 minutes, read-out: IC^50 ^125 I-CCK Pancreas
T1 construct: The whole pancreas was dissected free of fat tissue and was homogenized; from tissue; host or cells: rat whole pancreas, membrane preparation
T1 sequence (P30551 1-444): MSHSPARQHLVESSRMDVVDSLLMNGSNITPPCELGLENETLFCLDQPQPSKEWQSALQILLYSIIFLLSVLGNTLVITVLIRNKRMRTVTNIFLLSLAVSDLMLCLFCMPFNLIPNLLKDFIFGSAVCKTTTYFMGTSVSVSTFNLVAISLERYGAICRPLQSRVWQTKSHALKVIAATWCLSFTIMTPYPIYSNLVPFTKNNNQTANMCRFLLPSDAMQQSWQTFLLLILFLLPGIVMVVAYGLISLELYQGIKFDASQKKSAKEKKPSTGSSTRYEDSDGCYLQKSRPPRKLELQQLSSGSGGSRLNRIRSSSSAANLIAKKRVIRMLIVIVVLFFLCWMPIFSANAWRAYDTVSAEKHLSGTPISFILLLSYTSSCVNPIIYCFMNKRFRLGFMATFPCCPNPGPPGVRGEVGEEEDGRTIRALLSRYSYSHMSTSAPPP
Description: 1. CCK Receptor Binding (Pancreas)
CCK-33 was radiolabeled with ^125 I-Bolton Hunter reagent (2000 Ci/mmole) as described by Sankara et al. (J. Biol. Chem. 254: 9349-9351, 1979). Receptor binding was performed according to Innis and Snyder (Proc. Natl. Acad. Sci. 77: 6917-6921, 1980) with the minor modification of adding the additional protease inhibitors, phenyl-methane sulfonyl fluoride and o-phenanthroline. The latter two compounds have no effect on the ^125 I-CCK receptor binding assay.
Male Sprague-Dawley rats (200-350g) were sacrificed by decapitation. The whole pancreas was dissected free of fat tissue and was homogenized in 20 volumes of ice-cold 50 mM, Tris HCl (pH 7.7 at 25° C.) with a Brinkmann Polytron PT 10. The homogenates were centrifuged at 48,000 g for 10 min. Pellets were resuspended in Tris Buffer, centrifuged as above and resuspended in 200 volumes of binding assay buffer (50 mM Tris HCl, pH 7.7 at 25° C., 5 mM dithiothrietol, 0.1 mM bacitracin, 1.2 mM phenylmethane sulfonyl fluoride and 0.5 mM o-phenanthroline). […] All assays were run in duplicate or triplicate. The reaction mixtures were incubated at 37° C. for 30 minutes and centrifuged in a Beckman Microfuge (4 minutes) immediately after adding 1 ml of ice-cold incubation buffer. The supernatant was aspirated and discarded, pellets were counted with a Beckman gamma 5000. For Scatchard analysis (Ann. N.Y. Acad. Sci. 51: 660, 1949), ^125 I-CCK-33 was progressively diluted with increasing concentrations of CCK-33.

[2] = tested on: CCK-B receptors; conditions: in words; cited from earlier work
[3] = rat, brain synaptosomal fraction; cited from earlier work
[4] = tested on: CCK-A receptors; conditions: in words; cited from earlier work
[5] = tested on: stomach gastrin receptor; conditions: in words; cited from earlier work
[6] = biological target: T2, CCK receptor (brain) (Cavia porcellus, UniProt H0VZC5); assay: CCK receptor binding (Brain), inhibition of 125I-CCK binding; design: species or system guinea pig (male Hartley); conditions: guinea pig cerebral cortex, 125I-CCK-33, 25° C., 2 hours; read-out: IC^50 ^125 I-CCK Brain
T2 construct: Cerebral cortex was dissected and used as a receptor source; from tissue; host or cells: guinea pig cerebral cortex, membrane preparation
T2 sequence (H0VZC5 entry or part of it): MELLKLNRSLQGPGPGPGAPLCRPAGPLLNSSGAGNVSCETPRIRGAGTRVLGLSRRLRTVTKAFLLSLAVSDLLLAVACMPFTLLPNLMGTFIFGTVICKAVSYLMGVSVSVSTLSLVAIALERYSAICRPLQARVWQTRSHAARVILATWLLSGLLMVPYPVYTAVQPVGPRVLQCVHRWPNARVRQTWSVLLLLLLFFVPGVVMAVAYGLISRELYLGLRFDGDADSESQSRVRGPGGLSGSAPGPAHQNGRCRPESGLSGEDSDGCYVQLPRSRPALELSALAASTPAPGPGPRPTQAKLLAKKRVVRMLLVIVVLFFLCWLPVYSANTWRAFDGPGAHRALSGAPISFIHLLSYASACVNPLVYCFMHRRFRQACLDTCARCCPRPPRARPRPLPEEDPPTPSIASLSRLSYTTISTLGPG
Description: 2. CCK Receptor Binding (Brain)
CCK-33 was radiolabeled and the binding was performed according to the description for the pancreas method with modifications according to Saito et al., J. Neurochem. 37, 483-490, 1981.
Male Hartley guinea pigs (300-500 g) were sacrificed by decapitation and the brains were removed and placed in ice-cold 50 mM, Tris HCl plus 7.58 g/l Trizma-7.4 (pH 7.4 at 25° C.). Cerebral cortex was dissected and used as a receptor source. Each gram of fresh guinea pig brain tissue was homogenized in 10 ml of Tris Trizma buffer with a Brinkman polytron PT-10. The homogenates were centrifuged at 42,000 g for 15 min. […] All assays were run in duplicate or triplicate. The reaction mixtures were incubated at 25° C. for 2 hours and centrifuged in a Beckman Microfuge (4 minutes) immediately after adding 1 ml of ice-cold incubation buffer. The supernatant was aspirated and discarded, pellets were counted with a Beckman gamma 5000.

[7] = biological target: T3, gastrin receptor (Cavia porcellus, UniProt H0VZC5); assay: Gastrin receptor binding in guinea pig gastric glands; design: species or system guinea pig (male Hartley); conditions: read-out: IC^50 Gastrin
T3 construct: Guinea pig gastric mucosal glands were prepared by the procedure of Berglingh and Obrink; from tissue; host or cells: guinea pig gastric mucosal glands
T3 sequence (H0VZC5 entry or part of it): as above
Description: Gastrin antagonist activity of compounds of Formula I is determined using the following assay: […]
Gastrin Receptor Binding in Guinea Pig Gastric Glands Preparation of guinea pig gastric mucosal glands
Guinea pig gastric mucosal glands were prepared by the procedure of Berglingh and Obrink Acta Physiol. Scand. 96: 150 (1976) with a slight modification according to Praissman et al. C. J. Receptor Res. 3: (1983). Gastric mucosa from guinea pigs (300-500 g body weight, male Hartley) were washed thoroughly and minced with fine scissors in standard buffer consisting of the following: 130 mM NaCl, 12 mM NaHCO3, 3 mM NaH2 PO4, 3 mM K2 HPO4, 2 mM MgSO4, 1 mM CaCl2, 5 mM glucose and 4 mM L-glutamine, 25 mM HEPES at pH 7.4. The minced tissues were washed and then incubated in a 37° C. shaker bath for 40 minutes with the buffer containing 0.1% collagenase and 0.1% BSA and bubbled with 95% O2 and 5% CO2. The tissues were passed twice through a 5 ml glass syringe to liberate the gastric glands, and then filtered through 200 mesh nylon. The filtered glands were centrifuged at 270 g for 5 minutes and washed twice by resuspension and centrifugation.

Row | Molecule | IC50 [1] [nM] | affinity for CCK-B receptors [2] | affinity for CCK-A receptors [4] | IC50 [6] [nM] | IC50 [7] [nM] | further results
1 | CSC1=Nc2ccccc2C(c2ccccc2F)=N[C@@H]1Cc1c[nH]c2ccccc12 [Example 2, 2-Methylthio-3(R)-(3'-indolyl)methyl-5-(2'-fluorophenyl)2H-1,4-benzodiazepine] | 17000 | – | – | – | – | –
2 | CSCC[C@H](NC(=O)[C@H](Cc1ccc(OS(=O)(=O)O)cc1)NC(=O)[C@@H](N)CC(=O)O)C(=O)NCC(=O)N[C@@H](Cc1c[nH]c2ccccc12)C(=O)N[C@@H](CCSC)C(=O)N[C@@H](CC(=O)O)C(=O)N[C@@H](Cc1ccccc1)C(N)=O [CCK-8s, H-Asp-Tyr(SO3 H)-Met-Gly-Trp-Met-Asp-Phe-NH2] | – | high affinity | high affinity | – | – | half-life [3]: less than 1 hour
3 | CSCC[C@H](NC(=O)[C@@H](N)Cc1c[nH]c2ccccc12)C(=O)N[C@@H](CC(=O)O)C(=O)N[C@@H](Cc1ccccc1)C(N)=O [CCK-4] | – | high affinity | lower affinity | – | – | potency at stomach gastrin receptor [5]: minimum fully potent CCK sequence
4 | CCN(CC)CCCNC1=Nc2ccccc2C(c2ccccc2)=NC1NC(=O)Nc1cccc(C)c1 (stereo not shown) [Example 13, N-[2-[((3-Diethylamino)propyl)amino]-5-phenyl-3H-1,4-benzodiazepin-3-yl]-N'-[3-methylphenyl]-urea] | 14000 | – | – | 78 | 120 | –
5 | gastrin: neuropeptide structurally related to cholecystokinin | – | – | lower affinity | – | – | –
6 | Cc1cccc(NC(=O)NC2N=C(c3ccccc3)c3ccccc3N=C2NCC(=O)N2CCN(C)CC2)c1 (stereo not shown) [Example 12, 1-Methyl-4-[[(3-((((3-methylphenyl)amino)carbonyl)amino)-5-phenyl-3H-1,4-benzodiazepin-2-yl)amino]acetyl]-piperazine] | 1000 | – | – | 124 | 180 | –
7 | CSCC[C@H](NC(=O)[C@H](Cc1ccc(O)cc1)NC(=O)[C@@H](N)CC(=O)O)C(=O)NCC(=O)N[C@@H](Cc1c[nH]c2ccccc12)C(=O)N[C@@H](CCSC)C(=O)N[C@@H](CC(=O)O)C(=O)N[C@@H](Cc1ccccc1)C(N)=O [CCK-8d] | – | – | lower affinity | – | – | –
8 | CSCC[C@H](NC(=O)[C@H](Cc1c[nH]c2ccccc12)NC(=O)CCNC(=O)OC(C)(C)C)C(=O)N[C@@H](CC(=O)O)C(=O)N[C@@H](Cc1ccccc1)C(N)=O [pentagastrin] | – | high affinity | – | – | – | –
9 | Cc1cccc(NC(=O)NC2N=C(c3ccccc3)c3ccccc3N=C2NCCCN2CCCC2=O)c1 (stereo not shown) [Example 14, N-[3-Methylphenyl]-N'-[2-((3-(2-oxo)pyrrolidinyl)propyl)amino-5-phenyl-3H-1,4-benzodiazepin-3-yl]-urea] | 590 | – | – | 15 | 13 | –
10 | Cc1cccc(NC(=O)NC2N=C(c3ccccc3)c3ccccc3N=C2NCC(=O)N2CCCC2)c1 (stereo not shown) [Example 11, 1-[[(3-((3-Methylphenylaminocarbonyl)amino)-5-phenyl-3H-1,4-benzodiazepin-2-yl)amino]acetyl]-pyrrolidine] | 1100 | – | – | 5.9 | 20 | –
